# Measurements published in patent US20260078103A1, “ISOQUINOLONES AS PI3K INHIBITORS” (OnKure, Inc., priority 2022, published 2026).
# Legend:
# Type in all cases: cell-based
# [1] = test system: phosphorylation of AKT (pAKT) in SKBR3 cells express WT PI3Ka; assay: In vitro cell pAKT (Ser473) HTRF, SKBR3 cells; conditions: cellular pAKT
# Procedure: (§1) In Vitro Cell pAKT: Determination of IC50 Values for Inhibition of Phosphorylation of AKT (pAKT) in T47D Cells Expressing Mutant PI3Ka (H1047R) Mutation and SKBR3 Cells Express WT PI3Ka.
# (§2) T47D or SKBR3 cells were trypsinized, resuspended in culture media and seeded onto assay ready plates. T47D culture media consisted of RPMI, 10% FBS and Insulin (0.2 units/mL). SKBR3 culture media consisted of McCoy's 5a and 10% FBS. Cells were seeded at a density of 5000 cells/well and dispensed in 12.5 μL onto 384 well assay ready plates (Perkin Elmer, 6008238)). Assay ready plates had previously been stamped with 10-point dilutions of compounds of interest, as well as controls. The Echo655 is used to stamp plates at 12.5 nL of compound or DMSO. Cells were grown for 6 hours at 37° Celsius and 5% CO2. After 6 hours, 4 μL of Lysis buffer reagent was added to the plate, which was then centrifuged for 1 minute at 1000 rpm. Then the plate was incubated at room temperature for 30 minutes. After 30 minutes, 4 μL of antibody mix containing Eu Cryptate, d2 Cryptate, and detection buffer, was added to the plate. The plate was centrifuged for 1 minute at 1000 rpm and then incubated overnight at room temperature. The plate was read on an Envision plate reader using the HTRF protocol. The percentage of inhibition of AKT phosphorylation was calculated using the following formula: % Inhibition=100×(pAKTHC−pAKTSample)/(pAKTHC−pAKTLC)), where pAKTHC is obtained from cells treated with 0.1% DMSO only; PAKTLC is obtained from cells treated with 10 uM Alpelisib. The IC50 (concentration achieving 50% inhibition of pAKT) is calculated by fitting the Curve using XIfit (v5.3.1.3), equation 201: Y=Bottom+(Top−Bottom)/(1+10^((LogIC50−X)*HillSlope)).
# [2] = test system: T47D cells expressing mutant PI3Ka (H1047R); assay: In vitro cell proliferation, T47D cells (CellTiter-Glo); conditions: inhibition of proliferation, 72 hours, read-out: Avg T-47D EC50
# Procedure: (§3) In Vitro Cell Proliferation: Determination of EC50 Values for Inhibition of Proliferation in T47D Cells Expressing Mutant PI3Ka (H1047R) Mutation and SKBR3 Cells Express WT PI3Ka.
# (§4) T47D or SKBR3 cells were trypsinized, resuspended in culture media and seeded onto assay ready plates. T47D culture media consisted of RPMI, 10% FBS and Insulin (0.2 units/mL). SKBR3 culture media consisted of McCoys 5a and 10% FBS. Cells were seeded at a density of 1,500 cells/well and dispensed in 50 μl onto 384 well assay ready plates (Corning, 89089-790). Assay ready plates had previously been stamped with 10-point dilutions of compounds of interest, as well as controls. The Echo655 is used to stamp plates at 40 nL of compound or DMSO. Cells were grown for 72 hours at 37° Celsius and 5% CO2. After 72 hours, cells were equilibrated at room temperature for 15 minutes. 30 μL of CellTiter-Glo reagent is added to the plate, which is then shaken for 30 minutes at temperature at 300-500 rpm. Cells are then read on an Envision plate reader. The percentage of inhibition of proliferation was calculated using the following formula: % Inhibition=100×(LumD−Lumsample)/(LumD−Lumlnh), where D is obtained from cells treated with 0.1% DMSO only; lnh is obtained from cells treated with 10 uM Alpelisib. The effective concentration achieving 50% inhibition of proliferation (EC50) is calculated by fitting the Curve using Xlfit (v5.3.1.3), equation 201: Y=Bottom+(Top−Bottom)/(1+10^((LogEC50−X)*HillSlope)).
# [3] = test system: phosphorylation of AKT (pAKT) in T47D cells expressing mutant PI3Ka (H1047R); assay: In vitro cell pAKT (Ser473) HTRF, T47D cells; conditions: cellular pAKT, T47D cells, mutant PI3Ka (H1047R), 6 hours; read-out: Avg T-47D IC50
# Procedure: as §1, §2
# [4] = test system: SKBR3 cells express WT PI3Ka; assay: In vitro cell proliferation, SKBR3 cells (CellTiter-Glo); conditions: inhibition of proliferation, 72 hours
# Procedure: as §3, §4
SMILES,IC50 ([1]; 6 hours),EC50 [2],IC50 [3],EC50 [4],"IC50 ([1]; Homo sapiens, SK-BR-3, 6 h)"
"Cc1cc(C(C)Nc2ccccc2C(=O)O)c2cc(N3C[C@@H]4CN(CC(F)(F)F)C[C@H]4C3)n(C)c(=O)c2c1 (single isomer, unassigned) [Example 109]",> 15 µM,0.001 to 0.5 µM,0.001 to 0.5 µM,2 to 15 µM,–
"Cc1cc(C(C)Nc2ccccc2C(=O)O)c2cc(N3CCC4(CCN(CC(F)(F)F)CC4)CC3)n(C)c(=O)c2c1 (single isomer, unassigned) [Example 110]",> 15 µM,2 to 15 µM,> 15 µM,2 to 15 µM,–
"Cc1cc(C(C)Nc2ccccc2C(=O)O)c2cc(N3CCC4(CCN(CC(F)(F)F)CC4)CC3)n(C)c(=O)c2c1 (single isomer, unassigned) [Example 111]",2 to 15 µM,0.001 to 0.5 µM,0.001 to 0.5 µM,2 to 15 µM,–
"COCCC(=O)N1CCN(c2cc3c(C(C)Nc4ccccc4C(=O)O)cc(C)cc3c(=O)n2C)CC1 (single isomer, unassigned) [Example 112]",–,2 to 15 µM,> 15 µM,> 15 µM,> 15 µM
"COCCC(=O)N1CCN(c2cc3c(C(C)Nc4ccccc4C(=O)O)cc(C)cc3c(=O)n2C)CC1 (single isomer, unassigned) [Example 113]",> 15 µM,0.001 to 0.5 µM,0.5 to 2 µM,2 to 15 µM,–
"Cc1cc(C(C)Nc2ccccc2C(=O)O)c2cc(N3C[C@@H]4CCCC[C@H]4C3)n(C)c(=O)c2c1 (single isomer, unassigned) [Example 114]",> 15 µM,> 15 µM,> 15 µM,> 15 µM,–
"Cc1cc(C(C)Nc2ccccc2C(=O)O)c2cc(N3C[C@H]4CCCC[C@@H]4C3)n(C)c(=O)c2c1 (single isomer, unassigned) [Example 115]",> 15 µM,0.001 to 0.5 µM,> 15 µM,> 15 µM,–
"Cc1cc(C(C)Nc2ccccc2C(=O)O)c2cc(N3CCN4CC(F)(F)CC4C3)n(C)c(=O)c2c1 (single isomer, unassigned) [Example 121]",> 15 µM,0.5 to 2 µM,0.001 to 0.5 µM,> 15 µM,–
"Cc1cc(C(C)Nc2ccccc2C(=O)O)c2cc(N3CCN4CC(F)(F)CC4C3)n(C)c(=O)c2c1 (single isomer, unassigned) [Example 122]",> 15 µM,2 to 15 µM,> 15 µM,> 15 µM,–
"Cc1cc(C(C)Nc2ccccc2C(=O)O)c2cc(N3CCN4C(=O)CCC4C3)n(C)c(=O)c2c1 (single isomer, unassigned) [Example 123]",> 15 µM,> 15 µM,> 15 µM,> 15 µM,–
"Cc1cc(C(C)Nc2ccccc2C(=O)O)c2cc(N3CCN4C(=O)CCC4C3)n(C)c(=O)c2c1 (single isomer, unassigned) [Example 124]",> 15 µM,0.5 to 2 µM,2 to 15 µM,> 15 µM,–
"COc1cccc(C#Cc2cc3c(C(C)Nc4ccccc4C(=O)O)cc(C)cc3c(=O)n2C)c1 (single isomer, unassigned) [Example 125]",> 15 µM,2 to 15 µM,> 15 µM,> 15 µM,–
"COc1cccc(C#Cc2cc3c(C(C)Nc4ccccc4C(=O)O)cc(C)cc3c(=O)n2C)c1 (single isomer, unassigned) [Example 126]",> 15 µM,0.001 to 0.5 µM,0.001 to 0.5 µM,> 15 µM,–
"Cc1cc(C(C)Nc2ccc(Cl)nc2C(=O)O)c2cc(N3Cc4ccc(F)cc4C3)n(C)c(=O)c2c1 (single isomer, unassigned) [Example 127]",> 15 µM,2 to 15 µM,> 15 µM,> 15 µM,–
